# Values of other authors as cited in patent US20130142872A1, “EMP2: Ethyl-Methyl, di Methyl, tri Methyl Pyruvate Acid Esters: A Tool for Regulating HbA1c and a Riboswitch Activator” (priority 2011, published 2013).
# Assays:
# [1] = clinically prescribed / clinically relevant doses
# [2] = wide variety of preclinical models of critical illnesses
# [3] = after coronary ischemia and reperfusion
# [4] = tested on: B-islet pancreatic cell; conditions: as compared to its glucose control
# [5] = tested on: primary astrocyte cultures; conditions: 10 mM extracellular NAD(+) after MNNG exposure
# [6] = tested on: Cultured mouse astrocytes; conditions: for cell death / translocation of the apoptosis-inducing factor from mitochondria to nuclei: after PARP-1 activation
# [7] = tested on: THP-1 monocytic cells; conditions: PMA-stimulated THP-1 cells
# [8] = tested on: Mouse neuron and astrocyte cultures; conditions: for NAD(+) depletion: PARP1 activation by MNNG or H(2)O(2); for poly(ADP-ribose) accumulation: during MNNG exposure, immunostaining; for cell death: hydrogen peroxide, NMDA or MNNG exposure
compound,measurement,setting,value
"CCOC(=O)C(C)=O [Ethyl pyruvate, ethyl pyruvate]",safety in human volunteers,[1],safe
same,survival and organ dysfunction,[2],improve survival and ameliorate organ dysfunction
same,cardiac function,[3],improve cardiac function
COC(=O)C(C)=O [Methyl pyruvate],increase in insulin production,[4],six-fold
same,safety in human volunteers,[1],safe
NC(=O)c1ccc[n+]([C@@H]2O[C@H](COP(=O)([O-])OP(=O)(O)OC[C@H]3O[C@@H](n4cnc5c(N)ncnc54)[C@H](O)[C@@H]3O)[C@@H](O)[C@H]2O)c1 [NAD(+)],cell death,[5],prevented
same,glycolytic capacity,[5],completely restored
same,mitochondrial membrane potential,[6]; NAD(+) restored to near-normal levels after PARP-1 activation,enabled the recovery
same,cell death,[6],blocked
same,translocation of the apoptosis-inducing factor from mitochondria to nuclei,[6],blocked
"CCCCC/C=C/C=C1/C(=O)C=CC1C/C=C\CCCC(=O)O (stereo not drawn) [PGJ2, 15-deoxy-Delta(12, 14)-PGJ2]","IL-1, IL-6 and TNFalpha (pro-inflammatory cytokine) secretion",[7],inhibitory effect
same,IL-1Ra production,[7],increasing
NC(=O)c1ccccc1 [benzamide],NAD(+) depletion,[8],prevented
same,poly(ADP-ribose) accumulation,[8],decrease
same,cell death,[8],markedly reduced
O=C(OC[C@H]1O[C@@H](OC(=O)c2cc(O)c(O)c(OC(=O)c3cc(O)c(O)c(O)c3)c2)[C@H](OC(=O)c2cc(O)c(O)c(OC(=O)c3cc(O)c(O)c(O)c3)c2)[C@@H](OC(=O)c2cc(O)c(O)c(OC(=O)c3cc(O)c(O)c(O)c3)c2)[C@@H]1OC(=O)c1cc(O)c(O)c(OC(=O)c2cc(O)c(O)c(O)c2)c1)c1cc(O)c(O)c(OC(=O)c2cc(O)c(O)c(O)c2)c1 [gallotannin],NAD(+) depletion,[8],prevented
same,poly(ADP-ribose) accumulation,[8],increase
same,cell death,[8],equally reduced
cyclosporin A,cell death,[6],blocked
same,translocation of the apoptosis-inducing factor from mitochondria to nuclei,[6],blocked
nobotanin B,cell death,[8],equally reduced
